From patent publication US9918990B2, “Substituted pyrrolo[2,3-c]pyridines and pyrazolo[3,4-c]pyridines as BET protein inhibitors” (Incyte Corporation, priority 2013, dated 2018)
Where a name gives a salt, the structure may show the parent alone.

What was measured:
C-myc = assay: KMS.12.BM C-myc ELISA assay; format: cell-based; conditions: Homo sapiens; KMS.12.BM cells, 2 hours, concentration required for 50% C-myc inhibition
How it was run: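 Human myeloma KMS.12.BM cells in RPMI/10% FBS were exposed to a compound concentration range for 2 h, then lysed with protease inhibitors. C-myc in clarified lysates was measured by ELISA. IC50 is the concentration giving 50% C-myc inhibition relative to untreated cells.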

BRD4-BD2 = BRD4-BD2 (Homo sapiens (Human), UniProt O60885); assay: BRD4 AlphaScreen assay, BRD4-BD2; format: binding; conditions: H4Ac4 peptide, 75 min, room temperature, read-out: BRD4 BD-2 enzyme IC50
How it was run: (§1)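 AlphaScreen read after 75 min dark incubation at room temperature, inhibitors serially diluted in DMSO and added before other components. IC50 from fit of percent control activity versus log inhibitor concentration.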

KMS.12.BM cells = assay: KMS.12.BM cell viability assay (Cell Titer-GLO, ATP quantitation); format: cell-based; conditions: Homo sapiens, 72 h, 3 days, concentration required for 50% cell death, read-out: KMS cellular IC50
How it was run: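 Human myeloma KMS.12.BM cells, 5000 cells/well in RPMI with 10% FBS, were exposed to a compound concentration range for 3 days. Viability was read by Cell Titer-GLO ATP luminescence relative to untreated cells; IC50 is the concentration giving 50% cell death.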

BRD4-BD1 = BRD4-BD1 (Homo sapiens (Human), UniProt O60885); assay: BRD4 AlphaScreen assay, BRD4-BD1; format: binding; conditions: H4Ac4 peptide, 75 min, room temperature, read-out: BRD4 BD-1 enzyme IC50
How it was run: as §1

SMILES	IC50 (C-myc) [µM]	IC50 (BRD4-BD2) [µM]	IC50 (BRD4-BD1) [µM]	IC50 (KMS.12.BM cells) [µM]
C[C@@H]1CN(CCn2c(=O)[nH]c3c(Oc4ccccc4)c(-c4cn(C)c(=O)c5[nH]ccc45)ccc32)C[C@H](C)O1 [Example 70, 1-{2-[(2R,6S)-2,6-Dimethylmorpholin-4-yl]ethyl}-5-(6-methyl-7-oxo-6,7-dihydro-1H-pyrrolo[2,3-c]pyridin-4-yl)-4-phenoxy-1,3-dihydro-2H-benzimidazol-2-one trifluoroacetate]	≤ 1	< 0.1	< 0.1	≤ 1
Cn1cc(-c2ccc3ncc(=O)[nH]c3c2Oc2ccc(F)cc2F)c2cn[nH]c2c1=O [Example 75, 8-(2,4-Difluorophenoxy)-7-(6-methyl-7-oxo-6,7-dihydro-1H-pyrazolo[3,4-c]pyridin-4-yl)quinoxalin-2(1H)-one]	≤ 1	< 0.1	< 0.1	≤ 1
Cn1cc(-c2ccc3c([nH]c(=O)n3C)c2OCC2CCCC2)c2cc[nH]c2c1=O [Example 92, 4-(Cyclopentylmethoxy)-1-methyl-5-(6-methyl-7-oxo-6,7-dihydro-1H-pyrrolo[2,3-c]pyridin-4-yl)-1,3-dihydro-2H-benzimidazol-2-one]	≤ 1	< 0.1	< 0.1	≤ 1
Cn1cc(-c2ccc3c([nH]c(=O)n3C)c2OC2CCCC2)c2cc[nH]c2c1=O [Example 93, 4-(Cyclopentyloxy)-1-methyl-5-(6-methyl-7-oxo-6,7-dihydro-1H-pyrrolo[2,3-c]pyridin-4-yl)-1,3-dihydro-2H-benzimidazol-2-one]	≤ 1	< 0.1	< 0.1	≤ 1
Cn1cc(-c2ccc3ocnc3c2Oc2ccccc2)c2cc[nH]c2c1=O [Example 96, 6-Methyl-4-(4-phenoxy-1,3-benzoxazol-5-yl)-1,6-dihydro-7H-pyrrolo[2,3-c]pyridin-7-one]	≤ 1	< 0.1	< 0.1	≤ 1
Cn1cc(-c2ccc3oc(CN)nc3c2Oc2ccccc2)c2cc[nH]c2c1=O [Example 103, 4-[2-(Aminomethyl)-4-phenoxy-1,3-benzoxazol-5-yl]-6-methyl-1,6-dihydro-7H-pyrrolo[2,3-c]pyridin-7-one]	≤ 1	< 0.1	< 0.1	≤ 1
CC(=O)NCc1nc2c(Oc3ccccc3)c(-c3cn(C)c(=O)c4[nH]ccc34)ccc2o1 [Example 104, N-{[5-(6-Methyl-7-oxo-6,7-dihydro-1H-pyrrolo[2,3-c]pyridin-4-yl)-4-phenoxy-1,3-benzoxazol-2-yl]methyl}acetamide]	≤ 1	< 0.1	< 0.1	≤ 1
Cn1cc(-c2ccc3oc(CNS(C)(=O)=O)nc3c2Oc2ccccc2)c2cc[nH]c2c1=O [Example 105, N-{[5-(6-Methyl-7-oxo-6,7-dihydro-1H-pyrrolo[2,3-c]pyridin-4-yl)-4-phenoxy-1,3-benzoxazol-2-yl]methyl}methanesulfonamide]	≤ 1	< 0.1	< 0.1	≤ 1
Cn1cc(-c2ccc3oc(CNC(=O)c4ccccc4)nc3c2Oc2ccccc2)c2cc[nH]c2c1=O [Example 106, N-{[5-(6-methyl-7-oxo-6,7-dihydro-1H-pyrrolo[2,3-c]pyridin-4-yl)-4-phenoxy-1,3-benzoxazol-2-yl]methyl}benzamide]	1 to 10	< 0.1	< 0.1	≤ 1
Cn1cc(-c2ccc3oc(CNC(=O)Cc4ccccc4)nc3c2Oc2ccccc2)c2cc[nH]c2c1=O [Example 107, N-{[5-(6-Methyl-7-oxo-6,7-dihydro-1H-pyrrolo[2,3-c]pyridin-4-yl)-4-phenoxy-1,3-benzoxazol-2-yl]methyl}-2-phenylacetamide]	≤ 1	< 0.1	< 0.1	≤ 1

Now from value to compound, other results behind:

IC50 (C-myc) [µM]	IC50 (BRD4-BD2) [µM]	IC50 (BRD4-BD1) [µM]	SMILES	IC50 (KMS.12.BM cells) [µM]
≤ 1	< 0.1	< 0.1	CN1CCN(CCn2c(=O)n(C)c3ccc(-c4cn(C)c(=O)c5[nH]ccc45)c(OCC4CCC4)c32)CC1 [Example 68, 4-(Cyclobutylmethoxy)-1-methyl-5-(6-methyl-7-oxo-6,7-dihydro-1H-pyrrolo[2,3-c]pyridin-4-yl)-3-[2-(4-methylpiperazin-1-yl)ethyl]-1,3-dihydro-2H-benzimidazol-2-one]	≤ 1
≤ 1	< 0.1	< 0.1	Cn1cc(-c2ccc3c([nH]c(=O)n3CCN3CCOCC3)c2Oc2ccccc2)c2cc[nH]c2c1=O [Example 69, 5-(6-Methyl-7-oxo-6,7-dihydro-1H-pyrrolo[2,3-c]pyridin-4-yl)-1-(2-morpholin-4-ylethyl)-4-phenoxy-1,3-dihydro-2H-benzimidazol-2-one trifluoroacetate]	≤ 1
≤ 1	< 0.1	< 0.1	Cn1cc(-c2ccc3c([nH]c(=O)n3C)c2OCC2CC2)c2cc[nH]c2c1=O [Example 74, 4-(Cyclopropylmethoxy)-1-methyl-5-(6-methyl-7-oxo-6,7-dihydro-1H-pyrrolo[2,3-c]pyridin-4-yl)-1,3-dihydro-2H-benzimidazol-2-one]	≤ 1
≤ 1	< 0.1	< 0.1	Cn1cc(-c2ccc3c(cnn3C)c2OCC2CC2)c2cc[nH]c2c1=O [Example 76, 4-[4-(Cyclopropylmethoxy)-1-methyl-1H-indazol-5-yl]-6-methyl-1,6-dihydro-7H-pyrrolo[2,3-c]pyridin-7-one]	≤ 1
≤ 1	< 0.1	< 0.1	Cn1cc(-c2ccc3c(cnn3C)c2OCC2CC2)c2cn[nH]c2c1=O [Example 77, 4-[4-(Cyclopropylmethoxy)-1-methyl-1H-indazol-5-yl]-6-methyl-1,6-dihydro-7H-pyrazolo[3,4-c]pyridin-7-one]	≤ 1
≤ 1	< 0.1	< 0.1	CC(O)c1cc(-c2cn(C)c(=O)c3[nH]ncc23)c(Oc2ccc(F)cc2F)c2ncn(C)c12 (stereo not drawn) [Example 78, 4-[4-(2,4-Difluorophenoxy)-7-(1-hydroxyethyl)-1-methyl-1H-benzimidazol-5-yl]-6-methyl-1,6-dihydro-7H-pyrazolo[3,4-c]pyridin-7-one]	≤ 1
≤ 1	< 0.1	< 0.1	Cn1cc(-c2ccc3c([nH]c(=O)n3C)c2Oc2ccc(Cl)cc2)c2cc[nH]c2c1=O [Example 86, 4-(4-Chlorophenoxy)-1-methyl-5-(6-methyl-7-oxo-6,7-dihydro-1H-pyrrolo[2,3-c]pyridin-4-yl)-1,3-dihydro-2H-benzimidazol-2-one]	≤ 1
≤ 1	< 0.1	< 0.1	Cn1cc(-c2ccc3c([nH]c(=O)n3C)c2Oc2cccc(Cl)c2)c2cc[nH]c2c1=O [Example 87, 4-(3-Chlorophenoxy)-1-methyl-5-(6-methyl-7-oxo-6,7-dihydro-1H-pyrrolo[2,3-c]pyridin-4-yl)-1,3-dihydro-2H-benzimidazol-2-one]	≤ 1
≤ 1	< 0.1	< 0.1	Cn1cc(-c2ccc3c([nH]c(=O)n3C)c2OCC2CCCCC2)c2cc[nH]c2c1=O [Example 88, 4-(Cyclohexylmethoxy)-1-methyl-5-(6-methyl-7-oxo-6,7-dihydro-1H-pyrrolo[2,3-c]pyridin-4-yl)-1,3-dihydro-2H-benzimidazol-2-one]	≤ 1
≤ 1	< 0.1	< 0.1	Cn1cc(-c2ccc3c([nH]c(=O)n3C)c2OC2CCC2)c2cc[nH]c2c1=O [Example 89, 4-(Cyclobutyloxy)-1-methyl-5-(6-methyl-7-oxo-6,7-dihydro-1H-pyrrolo[2,3-c]pyridin-4-yl)-1,3-dihydro-2H-benzimidazol-2-one]	≤ 1
≤ 1	< 0.1	< 0.1	Cn1cc(-c2ccc3c([nH]c(=O)n3C)c2OC2CCCCC2)c2cc[nH]c2c1=O [Example 90, 4-(Cyclohexyloxy)-1-methyl-5-(6-methyl-7-oxo-6,7-dihydro-1H-pyrrolo[2,3-c]pyridin-4-yl)-1,3-dihydro-2H-benzimidazol-2-one]	≤ 1
≤ 1	< 0.1	< 0.1	Cn1cc(-c2ccc3c([nH]c(=O)n3C)c2OC2CCCOC2)c2cc[nH]c2c1=O (stereo not drawn) [Example 91, 1-Methyl-5-(6-methyl-7-oxo-6,7-dihydro-1H-pyrrolo[2,3-c]pyridin-4-yl)-4-(tetrahydro-2H-pyran-3-yloxy)-1,3-dihydro-2H-benzimidazol-2-one]	≤ 1
≤ 1	< 0.1	< 0.1	Cn1cc(-c2ccc3c(c2Oc2ccccc2)NC(=O)CO3)c2cc[nH]c2c1=O [Example 94, 6-(6-Methyl-7-oxo-6,7-dihydro-1H-pyrrolo[2,3-c]pyridin-4-yl)-5-phenoxy-2H-1,4-benzoxazin-3(4H)-one]	≤ 1
≤ 1	< 0.1	< 0.1	Cn1cc(-c2ccc3oc(CNC(=O)C4CC4)nc3c2Oc2ccccc2)c2cc[nH]c2c1=O [Example 108, N-{[5-(6-Methyl-7-oxo-6,7-dihydro-1H-pyrrolo[2,3-c]pyridin-4-yl)-4-phenoxy-1,3-benzoxazol-2-yl]methyl}cyclopropanecarboxamide]	≤ 1
